Where two headings read alike, the source gives them in different places. Where no end group is shown, it is not given here.
Key:
Aβ42 oligomers = Aβ42 oligomers (Homo sapiens, UniProt P05067); experiment: ELISA binding of histidine-tagged ZR derivatives to Aβ42 oligomers
SH-SY5Y cells [1] = conditions: for cell activity (MTT, relative to PBS control): Aβ42 4 μM, 48 hours, Aβ42 alone 71%
Description: (§1) SH-SY5Y cells were prepared into a single cell suspension with a medium (DMEM) containing 10% fetal bovine serum and then inoculated into a 96-well cell culture plate at 10000 cells per well and with a volume of 100 μL per well. The cells were incubated at 37° C., 5% of CO2 concentration for 24 hours in an incubator.
Aβ42: the final concentration of Aβ42 was 4 μM; a mixture of Aβ42 and ZR (Aβ:ZR=1:0.5): the final concentration of Aβ42 protein was 4 μM and the final concentration of ZR was 2 μM; a mixture of Aβ42 and ZR (Aβ: ZR=1:1): the final concentration of Aβ42 protein was 4 μM and the final concentration of ZR was 4 μM;
(§2) Cells were further cultured for 48 hours, then 10 μL of MTT solution was added into each well and incubated at 37° C. for 3 hours. Then the incubation was stopped by adding 100 μL dissolve solution (10% SDS and 5% iso-butanol dissolved in 0.01 M HCL) to each well, and incubated at 37° C. overnight to fully dissolve the MTT crystals. The absorbance of each well was measured on a multifunctional ELISA reader at a wavelength of 570 nm. After subtracting the background, the absorbance of the sample was divided by the absorbance of PBS control to act as an indicator of the cell activity, and the significant differences were analyzed.

SH-SY5Y cells [2] = conditions: for cell activity (MTT, relative to PBS control): amylin 4 μM, 48 hours, amylin alone 61%
Description: as §1
Amylin: the final concentration of amylin was 4 μM; a mixture of Amylin and ZR (Amylin:ZR=1:1): the final concentration of Amylin protein was 4 μM and the final concentration of ZR was 4 μM; a mixture of Amylin and ZR (Amylin: ZR=1:10): the final concentration of Amylin protein was 4 μM and the final concentration of ZR was 40 μM;
as §2

SH-SY5Y cells [3] = conditions: for cell activity (MTT, relative to PBS control): lysozyme 20 μM, 48 hours, lysozyme alone 55%
Description: as §1
Lysozyme: the final concentration of lysozyme was 20 μM; a mixture of lysozyme and ZR (lysozyme:ZR=1:1): the final concentration of lysozyme protein was 20 μM and the final concentration of ZR was 20 μM; a mixture of lysozyme and ZR (lysozyme: ZR=1:10): the final concentration of lysozyme protein was 20 μM and the final concentration of ZR was 200 μM;
as §2

SH-SY5Y cells [4] = conditions: for cell activity (MTT, relative to PBS control): insulin 60 μM, 48 hours, insulin alone 77%
Description: as §1
Insulin: the final concentration of insulin was 60 μM; a mixture of insulin and ZR (insulin:ZR=1:1): the final concentration of insulin protein was 60 μM and the final concentration of ZR was 60 μM; a mixture of insulin and ZR (insulin: ZR=1:5): the final concentration of insulin protein was 60 μM and the final concentration of ZR was 300 μM; PBS was used as control;
as §2

Chain of Aβ42 oligomers (P05067 672-713 limits assumed): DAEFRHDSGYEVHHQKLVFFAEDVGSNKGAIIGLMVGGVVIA

## AFFNNKR [sequence 7]
Aβ42 oligomers
  OD450 of binding to Aβ42 oligomers: 0.22

## SFANNKR [sequence 9]
Aβ42 oligomers
  OD450 of binding to Aβ42 oligomers: 0.15

## SFFNAKR [sequence 11]
Aβ42 oligomers
  OD450 of binding to Aβ42 oligomers: 0.18

## SFFNNAR [sequence 12]
Aβ42 oligomers
  OD450 of binding to Aβ42 oligomers: 0.14

## SFFNNKA [sequence 13]
Aβ42 oligomers
  OD450 of binding to Aβ42 oligomers: 0.14

## SFFNNKR [ZR, Ser-Phe-Phe-Asn-Asn-Lys-Arg]
SH-SY5Y cells [1]; ZR 2 μM (Aβ:ZR=1:0.5)
  cell activity (MTT, relative to PBS control): 80%
SH-SY5Y cells [1]; ZR 4 μM (Aβ:ZR=1:1)
  cell activity (MTT, relative to PBS control): 82%
SH-SY5Y cells [1]; molar ratio 1:1
  inhibition of cytotoxicity induced by Aβ42: 37.8%
SH-SY5Y cells [2]; ZR 4 μM (Amylin:ZR=1:1)
  cell activity (MTT, relative to PBS control): 70%
SH-SY5Y cells [2]; ZR 40 μM (Amylin:ZR=1:10)
  cell activity (MTT, relative to PBS control): 75%
SH-SY5Y cells [2]; molar ratio 1:10
  inhibition of cytotoxicity induced by amylin: 45.4%
SH-SY5Y cells [3]; ZR 20 μM (lysozyme:ZR=1:1)
  cell activity (MTT, relative to PBS control): 85%
SH-SY5Y cells [3]; ZR 200 μM (lysozyme:ZR=1:10)
  cell activity (MTT, relative to PBS control): 93%
SH-SY5Y cells [3]; molar ratio 1:10
  inhibition of cytotoxicity induced by lysozyme: 117.6%
SH-SY5Y cells [4]; ZR 60 μM (insulin:ZR=1:1)
  cell activity (MTT, relative to PBS control): 92%
SH-SY5Y cells [4]; ZR 300 μM (insulin:ZR=1:5)
  cell activity (MTT, relative to PBS control): 102%
SH-SY5Y cells [4]; molar ratio 1:5
  inhibition of cytotoxicity induced by insulin: 89.8%

— patent US11147853B2, “Polypeptide binding to a plurality of amyloid monomers and aggregates, and use thereof” (Hangzhou Wisdom Panacea Biologics Co., Ltd., priority 2015, dated 2021)
